What was measured:
[1] = target: 72 kDa type IV collagenase (Homo sapiens, UniProt P08253); assay: Inhibitory activity against MMP2
[2] = target: T1, Stromelysin-1 (Homo sapiens, UniProt P08254); assay: Inhibitory activity against MMP3 at 120 uM
Target sequence in this assay (P08254 100-477 limits assumed): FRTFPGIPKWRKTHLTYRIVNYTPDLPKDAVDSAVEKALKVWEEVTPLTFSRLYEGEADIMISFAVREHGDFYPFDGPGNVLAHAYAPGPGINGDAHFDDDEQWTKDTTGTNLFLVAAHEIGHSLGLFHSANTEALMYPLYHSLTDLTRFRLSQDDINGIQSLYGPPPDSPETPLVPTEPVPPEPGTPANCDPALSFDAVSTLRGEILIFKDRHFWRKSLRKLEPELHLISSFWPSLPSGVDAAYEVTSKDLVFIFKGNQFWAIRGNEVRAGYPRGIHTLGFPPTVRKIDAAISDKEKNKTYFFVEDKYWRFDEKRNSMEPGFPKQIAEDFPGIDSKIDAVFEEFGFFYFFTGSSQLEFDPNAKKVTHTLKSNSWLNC

[3] = target: Neutrophil collagenase (Homo sapiens, UniProt P22894); assay: Inhibitory activity against MMP8
[4] = target: T1, Stromelysin-1; assay: Inhibitory activity against MMP3
Target sequence in this assay (P08254 whole entry): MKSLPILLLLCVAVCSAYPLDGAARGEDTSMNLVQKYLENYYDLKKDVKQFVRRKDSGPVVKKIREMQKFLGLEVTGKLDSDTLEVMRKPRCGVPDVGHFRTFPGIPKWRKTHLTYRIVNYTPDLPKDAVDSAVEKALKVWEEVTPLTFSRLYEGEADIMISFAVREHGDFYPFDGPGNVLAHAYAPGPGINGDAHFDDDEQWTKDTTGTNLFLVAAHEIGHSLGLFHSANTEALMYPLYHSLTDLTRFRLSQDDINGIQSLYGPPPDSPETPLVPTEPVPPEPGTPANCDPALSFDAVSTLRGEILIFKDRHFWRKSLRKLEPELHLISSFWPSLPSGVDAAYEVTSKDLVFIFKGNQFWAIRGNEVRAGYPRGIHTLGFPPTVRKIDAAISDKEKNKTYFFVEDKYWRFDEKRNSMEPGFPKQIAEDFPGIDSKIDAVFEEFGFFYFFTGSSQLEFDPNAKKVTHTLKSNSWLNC

Chain of 72 kDa type IV collagenase (P08253 whole entry): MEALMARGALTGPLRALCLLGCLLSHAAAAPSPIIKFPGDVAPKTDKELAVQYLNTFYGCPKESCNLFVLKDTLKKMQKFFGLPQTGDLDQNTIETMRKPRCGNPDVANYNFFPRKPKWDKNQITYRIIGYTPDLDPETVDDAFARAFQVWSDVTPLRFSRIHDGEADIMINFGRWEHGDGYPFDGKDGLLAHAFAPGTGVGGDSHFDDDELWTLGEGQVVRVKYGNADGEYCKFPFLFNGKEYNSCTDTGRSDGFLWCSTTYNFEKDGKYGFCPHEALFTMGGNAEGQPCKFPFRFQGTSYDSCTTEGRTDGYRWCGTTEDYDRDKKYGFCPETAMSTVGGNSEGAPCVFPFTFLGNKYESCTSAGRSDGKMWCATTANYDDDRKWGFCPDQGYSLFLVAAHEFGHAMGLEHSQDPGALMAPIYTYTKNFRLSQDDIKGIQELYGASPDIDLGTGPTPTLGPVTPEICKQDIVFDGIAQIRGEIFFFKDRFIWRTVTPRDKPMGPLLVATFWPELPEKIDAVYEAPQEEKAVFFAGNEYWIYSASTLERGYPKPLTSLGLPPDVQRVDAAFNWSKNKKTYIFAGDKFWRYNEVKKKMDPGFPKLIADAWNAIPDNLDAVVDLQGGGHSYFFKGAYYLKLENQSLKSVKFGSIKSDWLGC
Chain of Neutrophil collagenase (P22894 whole entry): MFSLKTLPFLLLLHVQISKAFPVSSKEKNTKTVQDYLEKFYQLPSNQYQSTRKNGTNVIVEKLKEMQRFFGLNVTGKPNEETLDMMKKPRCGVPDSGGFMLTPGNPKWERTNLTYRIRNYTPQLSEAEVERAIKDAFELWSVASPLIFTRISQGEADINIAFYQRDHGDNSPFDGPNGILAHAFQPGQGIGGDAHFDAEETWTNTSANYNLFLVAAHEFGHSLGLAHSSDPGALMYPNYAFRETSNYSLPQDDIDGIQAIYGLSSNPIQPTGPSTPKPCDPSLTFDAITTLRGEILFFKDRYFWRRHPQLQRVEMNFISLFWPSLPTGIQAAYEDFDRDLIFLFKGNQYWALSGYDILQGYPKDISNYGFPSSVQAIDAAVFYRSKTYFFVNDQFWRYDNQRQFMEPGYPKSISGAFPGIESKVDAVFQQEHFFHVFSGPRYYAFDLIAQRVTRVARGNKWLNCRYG

IC50 [1] | inhibition [2] | IC50 [3] | IC50 [4] | Compound
> 120 µM | 22% | > 120 µM |  | N#Cc1ccc(-c2ccc(OCCNC(=O)NO)cc2)cc1
> 380 µM |  | > 380 µM | > 380 µM | O=C(NO)NCCc1ccc(Oc2ccccc2)cc1
58 µM |  |  | 200 µM | CN(CCOc1ccc(-c2ccc(C#N)cc2)cc1)C(=O)NO
685 µM |  | 1000 µM | 380 µM | CN(CCc1ccc(Oc2ccccc2)cc1)C(=O)NO
